According to patent US20230404988A1, “PROSTAGLANDIN RECEPTOR AGONISTS FOR USE IN THE TREATMENT OF A CORONAVIRUS INFECTION SUCH AS COVID-19” (priority 2020, published 2023):

Experiments:
[1] = test system: ACE2; assay: ACE2 expression in A549 cells (RT-PCR/SYBR green PCR, immunoblot); assay type: cell-based, human; details: incubation of 3 h to 24 h
Protocol: Human epithelial NSLC cell lines A549 were purchased from ATCC (catalogue number: ATCC CCL-185, American Type Culture Collection (ATCC), Manassas, VA). A549 cells were maintained in DMEM containing 10% fetal bovine serum (FBS), 4 mM GlutaMax (Thermo Scientific, Waltham, MA), 500 μg/mL Normocin (InvivoGen, San Diego, CA), 100 units/mL penicillin, and […] streptomycin (Thermo Scientific).
(§1) Gene downregulation of ACE2 has been evaluated with by RT-PCR and SYBR green PCR analyses. Total RNA was extracted from the cells or tissues and purified with the TRIzol reagent according to the manufacturer's protocol (Invitrogen). RNA was reverse transcribed by SuperScript® III reverse transcriptase (Invitrogen). The genes were amplified by with specific primers designed using BLAST alignment. Three housekeeping gene, GAPDH, (3-actin gene, and rare PBGD (porphobilinogen deaminase) gene were combined for normalization. Relative expression levels have been evaluated with the parameter of (ΔCt) of different human cell lines and human GNB cells after treatment with EP2, EP4 or EP2/EP4 agonists at a dose response concentration varying from 10E-2 to 10E2 fold of their respective EC50 of binding activity on each relevant EP receptor.
(§2) Immunoblot analysis on A549 cells treated with different EP2 and/or EP4 agonists doses ranging from 10E-2 to 10E2 fold of their respective binding EC50 is performed by lysing cells as described by Jia et al. (J. Virol., 2005, 79(23), 14614-14621).

[2] = test system: ACE2; assay: ACE2 expression in human primary ciliated cells obtained by gentle nasal brushing (RT-PCR/SYBR green PCR, immunoblot); assay type: cell-based; details: GNC cells, incubation of 3 h to 24 h
Protocol: Human primary ciliated cells obtained by gentle nasal brushing cells (GNBC cells) are collected from different patient sources, as described by Veit et al. (Nat. Med., 2018, 24(11), 1732-1742). Ciliogenesis is performed on cells plated on to poly-lysine-coated coverslips in 3.5-cm plates at 0.4×10^6 cells per well, allowed to attach for 24 hr, and then serum starved for 48 hr.
as §1, §2

[3] = test system: UREC cells; assay: Microarray transcriptome analysis of UREC cells (Affymetrix Human ClariomD, Reactome/GO analysis); assay type: cell-based
Protocol: Cell Culture Immortalized temperature-sensitive URECs are maintained and resuspended in complete RCGM (RCGM medium (0.5% FBS), 1.5% (v/v) certified FBS). Cells were seeded at 116,000 cells/well (350 k cells/cm 2) in 200 μl total volume of complete RCGM medium. Seed in triplicates per each experimental condition. Incubate at 39° C. to stop proliferation for 72 hours. After 72 hrs of cell growth, remove complete RCGM media. Replace with fresh complete RCGM media (2% FBS) containing the drug (at either 0.2, 2, or 10 μM) or vehicle control (media alone or 0.04% DMSO) at the appropriate concentration.
RNA Extraction. Extract RNA using RNeasy Micro Kit (Qiagene) using supplier's procedure. In short, disrupt the cells by adding QIAzol Lysis Reagent. Scratch each well with the pipette tip and pipette to mix. Homogenize the cells by vortexing. Adjust sample volume. Homogenize by passing the lysate through a 20-gauge needle. Precipitate proteins using chloroform solution. Load into a RNeasy MinElute column. Wash and elute following supplier's procedure. Prepare sample at a concentration of 5 ng/μl for quality control and measure by spectrometry (Xpose, Trinean) and confirming RNA as a RIN using capillary electrophoresis (TapeStation, Agilent). The average yield of extraction is 0.4±0.2 μg/100,000 cells (1 well of a 96-well plate).
Microarray data analysis. Affymetrix Human ClariomD were used following manufacturers protocols. Affymetrix Human ClariomD data were normalized using quantile normalization with adjustment based on the median intensity of probes with similar GC content (using Affymetrix Power Tools). Background correction was made using the antigenomic probes. Only probes targeting exons annotated from FAST DB v2016_1 transcripts were selected. Probes were considered as expressed if the DABG p-value ≤0.05 (Detection Above Background p-values were calculated using Affymetrix Power Tools) in more or equal than 60% of samples. Genes were considered as expressed if more or equal than 50% of their probes are expressed Minimum 4 selected probes were required to assess gene expression. If possible only high-specific probes were selected (i.e., not overlapping with repeat regions; not cross-hybridizing; and 40≤GC %≤60). In addition, if possible, only probes targeting constitutive gene regions were selected (i.e., targeting at least 75% of transcripts of a given gene). We performed a paired Student's t-test to compare gene intensities in the different biological replicates.
Analysis at the splicing level was first performed taking into account only exon probes (“EXON” analysis) in order to potentially detect new alternative events that could be differentially regulated (i.e., without taking into account known alternative events). Analysis at the splicing level was also performed by taking into account known patterns (“PATTERN” analysis) using the FAST DB splicing patterns annotation (i.e., for each gene, all possible splicing patterns were defined by comparing exon content of transcripts). All types of alternative events can be analyzed: Alternative first exons, alternative terminal exons, cassette exon, mutually exclusive exons, alternative 5′ donor splice site, alternative 3′-acceptor splice sites, intron retention, internal exon deletion and complex events corresponding to mix of several alternative event categories). “EXON” and “PATTERN” analyses were based on the splicing-index calculation. Results were considered statistically significant for uncorrected p-values ≤0.05 and fold-changes ≥2.0. Finally, significant results from “EXON” and “PATTERN” analyses were merged to obtain a single result list.
Unsupervised analysis. The PCA has been performed using “prcomp” function in R and the 2 first dimensions were plotted. The clustering has been performed using “dist” and “hclust” functions in R, using Euclidean distance and Ward agglomeration method. […]

[4] = test system: SARS-CoV-2; assay type: cell-based; details: cells infected with SARS-CoV-2 (Example 4)
[5] = test system: SARS-CoV-2; assay type: cell-based; details: human primary cells from airways biopsies infected with SARS-CoV-2 (MOI 0.001), 10 μM, day 2 post-infection, vs non-treated cells (FIG. 1)
[6] = 71 genes in term, UREC cells, 2 micromolar PGE1 vs non treated control
[7] = UREC cells, 2 micromolar PGE1 vs non treated control, regulation up

Compound: CCCCC[C@H](O)/C=C/[C@H]1[C@H](O)CC(=O)[C@@H]1CCCCCCC(=O)O [PGE1, Prostaglandin E1]
- expression of mRNA of ACE2 [1]: significantly reduce
- protein level of ACE2 [1]: significantly reduce
- expression of mRNA of ACE2 [2]: significantly reduce
- protein level of ACE2 [2]: significantly reduce
- Nb Regulated Genes (Up/Down), GO:0009597 detection of virus ([3]; 5 genes in term, UREC cells, 2 micromolar PGE1 vs non treated control): 3 (3/0)
- Nb Regulated Genes (Up/Down), GO:0035455 response to interferon-alpha ([3]; 10 genes in term, UREC cells, 2 micromolar PGE1 vs non treated control): 4 (4/0)
- Nb Regulated Genes (Up/Down), R-HSA-918233 TRAF3-dependent IRF activation pathway ([3]; 14 genes in pathway, UREC cells, 2 micromolar PGE1 vs non treated control): 4 (4/0)
- Nb Regulated Genes (Up/Down), R-HSA-168928 RIG-I/MDA5 mediated induction of IFN-alpha/beta pathways ([3]; 17 genes in pathway, UREC cells, 2 micromolar PGE1 vs non treated control): 6 (6/0)
- Nb Regulated Genes (Up/Down), GO:0005164 tumor necrosis factor receptor binding ([3]; 29 genes in term, UREC cells, 2 micromolar PGE1 vs non treated control): 6 (5/1)
- Nb Regulated Genes (Up/Down), R-HSA-933541 TRAF6 mediated IRF7 activation ([3]; 33 genes in pathway, UREC cells, 2 micromolar PGE1 vs non treated control): 4 (4/0)
- Nb Regulated Genes (Up/Down), R-HSA-936440 Negative regulators of RIG-I/MDA5 signaling ([3]; 34 genes in pathway, UREC cells, 2 micromolar PGE1 vs non treated control): 5 (5/0)
- Nb Regulated Genes (Up/Down), GO:0045071 negative regulation of viral genome replication ([3]; 40 genes in term, UREC cells, 2 micromolar PGE1 vs non treated control): 11 (11/0)
- Nb Regulated Genes (Up/Down), GO:0060337 type I interferon signaling pathway ([3]; 64 genes in term, UREC cells, 2 micromolar PGE1 vs non treated control): 20 (20/0)
- Nb Regulated Genes (Up/Down), R-HSA-909733 Interferon alpha/beta signaling ([3]; 67 genes in pathway, UREC cells, 2 micromolar PGE1 vs non treated control): 20 (20/0)
- Nb Regulated Genes (Up/Down), GO:0060333 interferon-gamma-mediated signaling pathway [3, 6]: 8 (8/0)
- Nb Regulated Genes (Up/Down), GO:0071347 cellular response to interleukin-1 [3, 6]: 9 (5/4)
- Nb Regulated Genes (Up/Down), R-HSA-1169408 ISG15 antiviral mechanism ([3]; 73 genes in pathway, UREC cells, 2 micromolar PGE1 vs non treated control): 11 (11/0)
- Nb Regulated Genes (Up/Down), R-HSA-877300 Interferon gamma signaling ([3]; 88 genes in pathway, UREC cells, 2 micromolar PGE1 vs non treated control): 11 (11/0)
- Nb Regulated Genes (Up/Down), GO:0009615 response to virus ([3]; 110 genes in term, UREC cells, 2 micromolar PGE1 vs non treated control): 21 (19/2)
- Nb Regulated Genes (Up/Down), GO:0051607 defense response to virus ([3]; 165 genes in term, UREC cells, 2 micromolar PGE1 vs non treated control): 27 (25/2)
- Nb Regulated Genes (Up/Down), GO:0006954 inflammatory response ([3]; 379 genes in term, UREC cells, 2 micromolar PGE1 vs non treated control): 22 (12/10)
- Nb Regulated Genes (Up/Down), GO:0006955 immune response ([3]; 421 genes in term, UREC cells, 2 micromolar PGE1 vs non treated control): 26 (19/7)
- Nb Regulated Genes (Up/Down), GO:0045087 innate immune response ([3]; 430 genes in term, UREC cells, 2 micromolar PGE1 vs non treated control): 30 (27/3)
- Fold-Change BIRC3 ([3]; UREC cells, 2 micromolar PGE1 vs non treated control, regulation down): 1.67
- Fold-Change BST2 [3, 7]: 1.6
- Fold-Change DDX58 [3, 7]: 2.76
- Fold-Change DHX58 [3, 7]: 1.55
- Fold-Change EIF2AK2 [3, 7]: 1.74
- Fold-Change EIF4E3 [3, 7]: 1.72
- Fold-Change FAST DB STABLE ID GSHG0007017 (no gene symbol) [3, 7]: 3.58
- Fold-Change FAST DB STABLE ID GSHG0007018 (no gene symbol) [3, 7]: 1.93
- Fold-Change GBP2//GBP7 [3, 7]: 1.62
- Fold-Change GBP4 [3, 7]: 1.86
- Fold-Change HERC5 [3, 7]: 2.37
- Fold-Change HLA-DRA [3, 7]: 1.86
- Fold-Change IFI6 [3, 7]: 2.51
- Fold-Change IFI27 [3, 7]: 1.57
- Fold-Change IFI35 [3, 7]: 1.62
- Fold-Change IFIH1 [3, 7]: 2.45
- Fold-Change IFIT1 [3, 7]: 5.18
- Fold-Change IFIT2 [3, 7]: 4.84
- Fold-Change IFIT3 [3, 7]: 3.99
- Fold-Change IFITM1 [3, 7]: 2.35
- Fold-Change IRF7 [3, 7]: 1.88
- Fold-Change ISG15 [3, 7]: 1.89
- Fold-Change MIR3614//TRIM25 [3, 7]: 1.56
- Fold-Change MX1 [3, 7]: 3.68
- Fold-Change MX2 [3, 7]: 4.02
- Fold-Change OASL [3, 7]: 2.27
- Fold-Change RSAD2 [3, 7]: 3.79
- Fold-Change SAMHD1 [3, 7]: 1.89
- Fold-Change STAT1 [3, 7]: 1.73
- Fold-Change TNFSF12//TNFSF12-TNFSF13//TNFSF13 [3, 7]: 1.62
- Fold-Change TNFSF13B [3, 7]: 1.65
- Fold-Change TRIM14 [3, 7]: 2.02
- Fold-Change USP18 [3, 7]: 2.26
- Fold-Change XAF1 [3, 7]: 1.82
- expression of a major biological pathway related to viral infection and interferon signaling ([3]; UREC human cells): significantly modifies
- fold changes of IFN related genes IFIT1, IFIT2 and IFIT3 (overexpressed) ([3]; UREC human cells): > 3
- induction of IFN related gene across doses tested ([3]; UREC human cells, doses from 0.2 to 10 microM): consistent

Compound: CCCCC(C)(C)[C@H](O)/C=C/[C@H]1[C@H](O)CC(=O)[C@@H]1C/C=C\CCCC(=O)O [Lab3, 16-16-dimethyl-PGE2]
- effect on SARS-CoV-2 infection [4]: significant effect

Compound: O=C1CC[C@H](/C=C/[C@@H](O)C(F)(F)c2ccccc2)N1CCCCCCc1nn[nH]n1 [Lab5, L902688]
- effect on SARS-CoV-2 infection [4]: significant effect

Compound: O=C(O)COc1cccc(CN(Cc2ccc(-n3cccn3)cc2)S(=O)(=O)c2cccnc2)c1 [Lab1, taprenepag]
- expression of mRNA of ACE2 [1]: significantly reduce
- protein level of ACE2 [1]: significantly reduce
- expression of mRNA of ACE2 [2]: significantly reduce
- protein level of ACE2 [2]: significantly reduce
- virus replication (viral RNA) [5]: able to decrease virus replication
- effect on SARS-CoV-2 infection [4]: significant effect

Compound: CCCCC[C@H](O)CC[C@H]1[C@H](O)CC(=O)[C@@H]1CCCCCCC(=O)O [Lab4, 13,14-dihydro-PGE1]
- effect on SARS-CoV-2 infection [4]: significant effect

Compound: CC#CCC(C)[C@H](O)/C=C/[C@@H]1[C@H]2C/C(=C/CCCC(=O)O)C[C@H]2C[C@H]1O (stereo partly shown) [Lab2, iloprost]
- effect on SARS-CoV-2 infection [4]: significant effect
